Reference: patent publication US20170269061A1, “METHOD FOR ASSESSING SENSITIVITY OF A TARGET DRUG IN VITRO AND A BIOMARKER USED THEREOF” (Tunghai University, priority 2016, published 2017)

Legend:
[1] = system: MDA-MB-231, SKBR-3 and BT-474 cells; experiment: Phase contrast observation of treated cells (Cell Experiment II); format: cell-based; conditions: 1 μg/ml paclitaxel, 72 hour; compared with 10 μg/ml trastuzumab and 1 μg/ml T-DM1
[2] = system: BT-474 cells; experiment: Immunofluorescence microscopy of drug localization (Cell Experiment I); format: cell-based; conditions: T-DM1 1 μg/ml or trastuzumab 10 μg/ml for 30 min
Experimental: (§1) After washing, each of the cells was fixed with 3.7% formaldehyde and permeabilized with 0.1% Triton-X 100. The fixed cells were incubated with rabbit anti-caveolin-1 antibody (1:100 dilution in PBS/0.1% Triton-100/3% BSA) at room temperature for 1 hour and then incubated with Cy3-conjugated anti-rabbit secondary antibodies (1:200 dilution in PBS/0.1% Triton-100/3% BSA) at room temperature for 1 hour.

[3] = system: SKBR-3 cells; experiment: as above; format: cell-based; conditions: T-DM1 1 μg/ml or trastuzumab 10 μg/ml for 30 min, co-staining with caveolin-1
Experimental: as §1

[4] = system: SKBR-3 cells
Experimental: Pro-survival protein Bcl-2 expression in each of the cells, culturing under different condition in example 7 at 48 hours, were determined by Western blot.
Using an annexin V detection kit (Invitrogen, ThermoFisher, Waltham, Mass., USA) to label cell surface phosphatidylserine of apoptotic cells and analysis these stained cells by flow cytometry. […] Co-staining images were taken by inverted fluorescence microscope shown in FIG. 15, wherein green color indicates annexin V positive apoptotic cell, red color indicates PI positive necrotic cell. Annexin V stained cells with PI positive staining were excluded as necrotic cells, apoptotic cells with only annexin V staining were counted and divided by total cells as the percentage of apoptosis. […] And, annexin V positive/PI negative apoptosis in FIG. 15 was quantified.

[5] = system: SKBR-3 cells; conditions: SKBR-3 with caveolin-1 siRNA; T-DM1 72 hours; p<0.05
Experimental: BT-474 cells were grown on plates in normal growth medium without antibiotics, and Lipofectamine 2000 transfection reagent (Invitrogen, ThermoFisher, Waltham, Mass., USA) was used to induce GFP-tagged caveolin-1 (Addgene, Cambridge, Mass., USA) overexpression. Caveolin-1siRNA (Dharmacon, GE health care, Lafayette, Colo., USA) was used in the knockdown experiment in SKBR-3 cells.

[6] = system: SKBR-3 cells; conditions: 1 μg/ml T-DM1 vs 10 μg/ml trastuzumab, 72 hour, p<0.01
Experimental: After culturing each of the cells under different condition in example 7, 0.1 ml of 0.4% trypan blue and deionized water (1:1) was added. Dead cells were stained blue, while live cells remained unstained. Therefore, the number of dead cells could be estimated and cell viability estimated with a hemocytometer. Wherein, the cell mortality was expressed as the percentage of trypan blue-positive cells compared to the total number of cells and the viability percentage was presented by the number of live cells divided by the number of untreated control cells×100.

For `CC(=O)O[C@H]1C(=O)[C@@]2(C)[C@H]([C@H](OC(=O)c3ccccc3)[C@]3(O)C[C@H](OC(=O)[C@H](O)[C@@H](NC(=O)c4ccccc4)c4ccccc4)C(C)=C1C3(C)C)[C@]1(OC(C)=O)CO[C@@H]1C[C@@H]2O` [paclitaxel], the “cytotoxicity (phase contrast)” value [1] was “most cytotoxicity”.
In the case of trastuzumab emtansine [T-DM1], the “localization of drug in cells” value [2] is reported as “localized only in the cell membrane”, the “localization of drug in cells” value [3] is reported as “colocalized in the SKBR-3 cell membrane and cytosol” and the Bcl-2 expression level ([4]; 1 μg/ml T-DM1, 48 hours, Western blot) is reported as “lower level of Bcl-2”. The “drug sensitivity (cell viability) with pan-caspase inhibitor Z-VAD-FMK” value ([4]; 1 μg/ml T-DM1 plus Z-VAD-FMK) was “decreased”, the “necrotic cells (PI staining)” value ([4]; T-DM1 treated) was “fewer necrotic cells” and the “percentage of apoptosis (annexin V)” value ([4]; T-DM1 treated) was “increased percentage of apoptosis”. The “T-DM1 efficacy on CAV-1 knockdown” value [5] was “significantly reduced T-DM1 efficacy” and the “cell sensitivity (cell viability) versus trastuzumab” value [6] was “significantly more sensitive”.
